Measured values from patent US5661139A, “Bis-(2-aryl) hydrazones” (Alteon Inc., priority 1995, dated 1997).

How the values were obtained:
[1] = Inhibition of cross-linking of N-acetyl glycyl-lysine methyl ester in the presence of ribose (fluorescence); type: biochemical; settings: 0.5M sodium phosphate buffer pH 7.4, ribose, 37 C, 16-24 hours; fluorescence ex 350 nm / em 400 nm
Procedure: N-acetylglycyllysine methyl ester (DP in formula below) Ribose (R in formula below)
0.5M sodium phosphate buffer pH 7.4 N-acetylglycyllysine methyl ester in 0.5M sodium phosphate buffer, pH 7.4
Test compounds dissolved in the above buffer and the pH is adjusted to 7.4, if necessary
Reaction mixtures are prepared as follows:
and incubated at 37 C for 16-24 hours. At the end of the incubation period, the fluroescence is read using an excitation wavelength of 350 nm and emission wavelenth of 400 nm. The inhibition of the cross-linking is calculated from the decrease in the fluorescence in the presence of the test compounds according to the formula:
Inhibition (%)=100×[DPRC fluorescence-RC fluorescence]/DPR

[2] = tested on: glycated bovine serum albumin (AGE-BSA) cross-linking to rat tail tendon collagen; settings: 4 h, pH 7.4
Procedure: The following method was used to evaluate the ability of the compounds of the present invention to inhibit the cross-linking of glycated bovine serum albumin (AGE-BSA), to the rat tail tendon collagen coated 96-well plate.
The AGE-BSA was prepared by incubating BSA at a concentration of 200 mg per ml with 200 mM glucose in 0.4M sodium phosphate buffer, pH 7.4 at 37° C. for 12 weeks. The glycated BSA was then extensively dialyzed against phosphate buffer solution (PAS) for 48 hours with additional 5 times buffer exchanges. […] The blocking solution was removed from the wells by washing the plate twice with PAS-Tween 20 solution (0.05% Tween 20) using a NUNC-multiprobe or Dynatech ELISA-plate washer. […] The cross-linked AGE-BSA to the tail tendon coated plate was then quantitated by the polyclonal antibody raised against AGE-RNase. […]
The bound AGE antibody was then detected with the addition of horseradish peroxidase-conjugated secondary antibody, e.g., goat anti-rabbit immunoglobulin and incubation for 30 minutes. […] The reaction was allowed for an additional 15 minutes and the absorbance was read at 410 nm in a Dynatech plate reader.
The % inhibition of each test compound was calculated as follows. […]

[3] = tested on: fixed protein (gelatin, i.e., collagen) surface; experiment: Surface browning experiment on gelatin/paper disks with glucose-6-phosphate; settings: Peridex at a final concentration of 0.04% chlorhexidine, with 100 Mm glucose-6-phosphate, one week at 50° C.
Procedure: To further study the ability of inhibitors of nonenzymatic browning to prevent the discoloration of protein on a surface, such as that which occurs on the tooth surface, the following surface browning experiment is performed. As a substitute for a pellicle-covered tooth surface, unexposed and developed photographic paper is used to provide a fixed protein (gelatin, i.e., collagen) surface on a paper backing. Five millimeter circles are punched and immersed for one week at 50° C. in a solution of 100 Mm glucose-6-phosphate in a 0.5M phosphate buffer, pH 7.4, containing 3 Mm sodium azide. Glucose-6-phosphate is a sugar capable of participating in nonenzymatic browning at a more rapid rate than glucose. In addition to the glucose-6-phosphate, chlorhexidine and/or a compound of Formula I are included. After incubation, the gelatin/paper disks are rinsed with water, observed for brown color, and photographed.

Row | Molecule | IC50 [1] [mM] | IC50 [2] [mM] | browning of the gelatin/paper disks [3]
1 | CC(C=NNc1ccccc1C(=O)OCc1ccc([N+](=O)[O-])cc1)=NNc1ccccc1C(=O)OCc1ccc([N+](=O)[O-])cc1 | 10 | – | –
2 | CC(C=NNc1ccccc1C(=O)OCCOP(=O)(O)O)=NNc1ccccc1C(=O)OCCOP(=O)(O)O [Methyl Glyoxal Bis-(2-Hydroxyethylphosphate-2-Hydrazinobenzoate) Hydrazone] | 0.597 | – | –
3 | CC(C=NNc1ccc(C(=O)O)cc1)=NNc1ccc(C(=O)O)cc1 [Methyl Glyoxal Bis-(4-Hydrazinobenzoic Acid) Hydrazone] | 0.118 | 11.5 | –
4 | CCOC(=O)c1ccccc1NN=CC(C)=NNc1ccccc1C(=O)OCC [Methyl Glyoxal Bis-(Diethyl 2-Hydrazinobenzoate) Hydrazone] | 10 | – | –
5 | COCCOCCOC(=O)c1ccccc1NN=CC(C)=NNc1ccccc1C(=O)OCCOCCOC [Methyl Glyoxal Bis-(Diethylene Glycol Methyl Ether 2-Hydrazinobenzoate) Hydrazone] | > 10 | – | –
6 | COC(=O)c1ccccc1NN=CC(C)=NNc1ccccc1C(=O)OC [Methyl Glyoxal Bis-(Dimethyl 2-Hydrazinobenzoate)Hydrazone] | > 10 | – | –
7 | COC(=O)c1ccc(NN=CC(C)=NNc2ccc(C(=O)OC)cc2)cc1 [Methyl Glyoxal Bis-(Dimethyl 4-Hydrazinobenzoate) Hydrazone] | 10 | – | –
8 | CC(C=NNc1ccccc1)=NNc1ccccc1 [Methyl Glyoxal Bis-(Phenylhydrazine) Hydrazone] | > 10 | – | –
9 | CC(C=NNc1ccccc1C(=O)OCCOCCOCCO)=NNc1ccccc1C(=O)OCCOCCOCCO [Methyl Glyoxal Bis-(Triethylene Glycol 2-Hydrazinobenzoate) Hydrazone] | 1.53 | – | –
10 | CC(C=NNc1ccccc1C(=O)OCC(O)CO)=NNc1ccccc1C(=O)OCC(O)CO (centres unmarked) [Methyl Glyoxal Bis-[1-(2,3-Dihydroxypropane)-2-Hydrazinobenzoate] Hydrazone] | > 3 | – | –
11 | CC(C=NNc1ccccc1C(=O)OCCO)=NNc1ccccc1C(=O)OCCO [Methyl Glyoxal Bis-[1-(2-Hydroxyethane)-2-Hydrazinobenzoate] Hydrazone] | 3 | – | –
12 | CC(C=NNc1ccccc1C(=O)OCc1ccncc1)=NNc1ccccc1C(=O)OCc1ccncc1 [Methyl Glyoxal Bis-[4-Methylpyridyl)-2-Hydrazinobenzoate] Hydrazone] | 1.24 | – | –
13 | CC(C=NNc1ccccc1C(=O)O)=NNc1ccccc1C(=O)O [Methylglyoxal Bis-(2-Hydrazinobenzoic Acid) Hydrazone] | 0.156 | 0.04 | –
14 | [H]/N=C(\N/C(=N/[H])NCCCCCCNC(=N)NC(=N)Nc1ccc(Cl)cc1)Nc1ccc(Cl)cc1 [chlorhexidine] | – | – | significant browning
15 | Methyl Glyoxal Bis-[(1-Hydroxymethyl-1-Acetoxy)-2-Hydrazinobenzoate] Hydrazone | 0.764 | – | –
